The target of one series is T1, BRD4 (BD2) (Homo sapiens, UniProt O60885).
T1 construct: purchased Reaction Biology Corp. RD-11-158
The experiment in a line: HTRF assay BRD4 (BD2). Type of series: binding. Particulars: read-out: Inhibitory rate at 10 μM, BRD4 (BD2). The protocol: (§1) In brief, compounds were serially diluted in Echo plate according to the plate map and DMSO’s final fraction is 0.1%. Then, transferring compounds and DMSO to 384-well assay plate by Echo. After that, 2× Protein and Peptide Mix was added to the assay plate and 2× Detection Mix was then added to assay plate and shook for 30 s. After incubating the plate at room temperature for 1.5 h, the HTRF signals (Excitation wavelength at 340 nm, Emission wavelength at 615 & 665 nm) was read on EnVision (PerkinElmer, UK). (+)-JQ1 (BPS Bioscience, Cat. No. 27402) was used as a positive control. BRD4-1 (RD-11–157) and BRD4-2 (RD-11–158) were purchased from Reaction Biology Corp. (PENN, USA). For Curve fitting, the inhibition values was calculated in Excel using Equation (1): Inhibition %=(Max-Signal)/(Max-Min)*100, and the IC50 values was calculated in XL-Fit using Equation (2): Y = Bottom + (Top-Bottom)/(1+(IC50/X)[…]), Y is %inhibition and X is compound concentration.
(TR-FRET usually uses a lanthanide donor and a delayed reading to cut background.)

The target of another series is T2, BRD4 (BD1) (Homo sapiens, UniProt O60885).
T2 construct: purchased Reaction Biology Corp. RD-11-157
The experiment in a line: HTRF assay BRD4 (BD1). Type of series: binding. The protocol:
as §1

The test system of the next series is SW620 cells. The experiment in a line: Cell cycle analysis (PI, flow cytometry), SW620 cells. It counts as cell-based, human. Particulars: SW620, 16 μM, 24 h. How it is done: (§2) Cells were seeded in 6-well plates (40,000 cells per well) and cultured in RPMI-1640 medium containing 10% FBS overnight. Then the cells were exposed to DMSO or compound ID-11 (8 or 16 μM) for 24 h. After that, cells were collected, washed with cold PBS for twice and fixed in 75% ethanol overnight at 4 °C. Subsequently, ethanol was removed and suspended in PBS for twice, and then RNase A and propidium iodide (PI) (Multi Sciences, Hangzhou, China) was added and keep in the darkness for 30 min. Finally, the percentages of cells in different cell cycle phases were measured using a FACS Calibur flow cytometer (Bectone Dickinson, San Jose, CA, USA).
On the technique in general: Flow cytometry measures light scatter and fluorescence of single cells or particles in a stream.

Another series deals with SW480 cells. As to the kind of experiment: Cell cycle analysis (PI, flow cytometry), SW480 cells. Type of series: cell-based, human. Particulars: SW480, 16 μM, 24 h. How it is done: as §2
For another series, the system named is NCM460 cells. The experiment in a line: MTS cell viability assay, NCM460 normal colon epithelial cells. Type of series: cell-based, human. Particulars: Homo sapiens, 48 h. The source says: (§3) Human colorectal cancer cell lines including RKO, SW620 and SW480 were purchased from Chinese Academy of Sciences, a typical cell library culture preservation committee (Shanghai, China). Normal human colon epithelial cell line NCM460 was purchased from ATCC (Washington, DC, USA). RPMI-1640 medium (12633020), foetal bovine serum (FBS, 26170043), penicillin-streptomycin (10378016) and phosphate buffered saline (PBS, 70011044) were purchased from Gibco (Eggenstein, Germany). 5-Fluorouracil (5-FU, E0201010050, purity ≥98%) was purchased from Energy Chemical (Shanghai, China). Dimethyl sulfoxide (DMSO, 41639) was obtained from Sigma-Aldrich (St. Louis, MO). 3–(4,5-dimethylthiazol-2-yl)-5–(3-carboxymethoxyphenyl)-2–(4-sulfophenyl)-2H-tetrazolium (MTS, G1111) was purchased from Promega (Madison, WI, USA). All cell lines were cultured in RPMI-1640 medium supplemented with 10% FBS, penicillin (100 units/mL) and streptomycin ([…]) at 37 °C in a humidified atmosphere containing 5% CO2.
(§4) Cell viability was measured via MTS assay. RKO, SW620, SW480 and NCM460 cells were seeded in 96-well plates at a density of 5000 cells per well for 24 h. After treatment with the test compounds at indicated concentration for another 48 h or 72 h at 37 °C, MTS solution was added to each well and incubated for another 30 min at 37 °C. Then, the absorbance at 490 nm was measured by a BioTek Synergy H4 microplate Reader (Vermont, USA). The IC50 values were calculated with Graphpad 7.0 software packages.

Test in series [1]: as above
It counts as cell-based, human. Particulars: human, NCM460 normal colon epithelial cells, 10 μM.
Source text: as §3, §4

For orientation: IC50 means the concentration that inhibits the measured activity by half. Broadly, the viability is a read-out of living cells in per cent, often relative to untreated cells. Regarding `O=c1ccc2cc(CSC(=S)n3ccnc3)ccc2o1` [ID-11, (2-Oxo-2H-chromen-6-yl)methyl 1H-imidazole-1-carbodithioate], the inhibition at 10 µM was found to be 35.7% at BRD4 (BD2) and 68.9% on BRD4 (BD1) (10 μM, read-out: Inhibitory rate at 10 μM, BRD4 (BD1)). The IC50 at BRD4 (BD1) (mean ± SD of three independent experiments) was 7.8 ± 2.2 µM; with NCM460 cells it was 23.9 µM. Also, the results for the “cell cycle distribution G2 (G2/M phase)” value in the series on SW620 cells and in the series with SW480 cells were 33.13% and 21.03%, respectively. In addition, the viability at 48 h, 10 µM in series [1] turned out to be 80.8%.

These data come from article PMC8759731, “Design, synthesis, and evaluation of novel coumarin-dithiocarbamate derivatives (IDs) as anti-colorectal cancer agents” (Journal of Enzyme Inhibition and Medicinal Chemistry, 2021).
